“Also recorded” adds a separate entry of the source.
Columns and labels:
[1] = test system: CD45+ immune cells in the torsed testis; test: Flow cytometry of CD45+ immune cell infiltrate in testis after testicular torsion; format: in vivo, CD1 mice; conditions: varenicline 1 grm/kg i.p. 1 hour after onset of torsion; 48 hours after reperfusion; P≤0.0001
Procedure: (§1) Unilateral testicular torsion was induced in mature male CD1 mice by rotating the right testicle 720 degrees for 2 hours. Treatment with cytisine or varenicline was initiated one hour prior or one hour after the creation of testicular torsion. Testes were harvested 18 hours and 30 days following reperfusion. The acute inflammatory response was quantified with FACS analysis, […], reduced glutathione levels and quantification of the expression of IRI markers. Long term (30 day) outcomes were assessed by histologic evaluation, quantification of the expression of pro-fibrotic genes and measurement of testicular weight.
Mice underwent testicular torsion as previously described (Lysiak 2001). Briefly, mice were anesthetized with isoflurane over a heating pad. […]
Eighteen hours after reperfusion of the testis in the cytisine group and 48 hours after reperfusion in the varenicline group, bilateral testes were harvested, homogenized and digested with digestion solution containing 0.5% FBS, 20 mM HEPES, RPMI Medium, 0.057 U/ml DNase I, 1 mg/ml collagenase b. Cells were washed, counted with a hemocytometer and 1 million then diluted to 1 million cells per mL. […] For each sample 300,000 live cells were counted using BD FACSCalibur (BD Biosciences, San Jose, CA) and analyzed with FlowJo 9.0 software (TreeStar, Ashland, OR).

[2] = Testis weight vs contralateral testis 30 days after torsion (testicular atrophy); format: in vivo, CD1 mice; conditions: drug given an hour after the onset of torsion; 30 days after reperfusion; vs untreated
Procedure: as §1
(§2) Mice underwent testicular torsion as previously described (Lysiak 2001). Briefly, mice were anesthetized with isoflurane over a heating pad. The right testis was delivered through a low scrotal incision and rotated counterclockwise 720 degrees to induce ischemia for 2 hours. […] All animals were injected with long-acting buprenorphine (0.1 mg/kg) for long-term pain control prior to being recovered from anesthesia. Mice were euthanized either 18 hours or 30 days following torsion. Mice kept for 30 days after surgery were weighed on a weekly basis.
(§3) Cytisine (Sigma-Aldrich, St. Louis, MO) was administered intraperitoneally at a dose of 0.1 μg/gram either 1 hour before torsion or 1 hour after torsion (1 hour prior to detorsion). Varenicline ([…]) was administered as an intraperitoneal injection one hour after the onset of torsion and then continued every 12 hours for a total of 4 doses.
The degree of testicular atrophy was determined by comparing the weight of the torsed testis to the contralateral control testis 30 days after reperfusion.

[3] = test system: pro-fibrotic genes Col1, Col3, Vim, SMA; test: RT-PCR of pro-fibrotic markers in testis 30 days after torsion; format: in vivo, CD1 mice; conditions: for relative expression of collagen 1 (Col1) / relative expression of collagen 3 (Col3) / relative expression of smooth muscle actin (Sma) / relative expression of vimentin (Vim): 30 days following torsion, vs untreated
Procedure: as §2, §3
RNA was isolated from testis tissue using RNEasy mini kit (Qiagen, Hilden, Germany) using the manufacturer's protocol. RNA concentration was measured with Nanodrop 8000 (Thermo Scientific, Waltham, MA). cDNA was synthesized using Superscript First-Strand Synthesis system for RT-PCR (Invitrogen, Carlsbad, CA) on a GeneAmp PCR System 9700 (Applied Biosystems, Foster City, CA) Real-Real-time PCR was performed using QuantStudio 7 Flex (Applied Biosystems, Foster City, CA). Software Quantstudio Real-Time PCR Software (Thermo Fisher Scientific, Waltham, MA). TaqMan Gene Expression Assays (Applied Biosystems, Foster City, CA). Standard TaqMan primers were used for Col1, Col3, Vim, SMA.

[4] = Warm ischemia of the hindlimb (flow cytometry, quantitative PCR, trichrome staining); format: in vivo; conditions: vs untreated controls
[5] = Renal scar formation and trichrome collagen quantification after acute pyelonephritis; format: in vivo, C3H/HeOuJ mice
Procedure: To initiate pyelonephritis, the bladder was catheterized with a 24-gauge angiocatheter and a total volume of 100 μL of a phosphate-buffered saline containing […] colony forming units (CFU) of CFT073 uropathogenic Escherichia coli (UPEC) was then instilled.
Tissues were preserved in formalin for 72 hours then stored in ethanol. Sections were cut to a 5 μm thickness and stained with H&E or Masson trichrome. Photographs were obtained at 20× resolution with Olympus VS120 virtual slide microscope system. The images were then analyzed with ImageJ Fiji software in order to quantify collagen deposition as previously described (Chen 2017). As collagen deposition would be expected as long-term sequelae of IRI, the trichrome stains of the long-term specimen were examined. All artifacts from the staining process as well as gross collecting system were cropped from these images prior to analysis. A color deconvolution plugin was used to separate the trichrome images into the separate colors. Analysis was performed based upon the percentage of deposition of collagen in the green image compared to the overall area of the kidneys.
Tissues harvested 21 days following completion of antibiotic therapy were subjected to trichome staining to assess for global collagen deposition. After removing artifacts (to ensure only parenchyma was included in the analysis), a color deconvolution plugin was used for ImageJ to divide the images into the respective three colors of the trichrome stain. A threshold was set and collagen was quantified as a percentage of green color in respect to the area of the entire kidney (FIG. 13).

[6] = target: α4β2nAChR (Homo sapiens, UniProt P17787+P43681); conditions: systemic concentrations found with routine oral dosing in humans (Campling 2013); cited from earlier work
Sequence of α4β2nAChR (P43681 29-627 limits assumed): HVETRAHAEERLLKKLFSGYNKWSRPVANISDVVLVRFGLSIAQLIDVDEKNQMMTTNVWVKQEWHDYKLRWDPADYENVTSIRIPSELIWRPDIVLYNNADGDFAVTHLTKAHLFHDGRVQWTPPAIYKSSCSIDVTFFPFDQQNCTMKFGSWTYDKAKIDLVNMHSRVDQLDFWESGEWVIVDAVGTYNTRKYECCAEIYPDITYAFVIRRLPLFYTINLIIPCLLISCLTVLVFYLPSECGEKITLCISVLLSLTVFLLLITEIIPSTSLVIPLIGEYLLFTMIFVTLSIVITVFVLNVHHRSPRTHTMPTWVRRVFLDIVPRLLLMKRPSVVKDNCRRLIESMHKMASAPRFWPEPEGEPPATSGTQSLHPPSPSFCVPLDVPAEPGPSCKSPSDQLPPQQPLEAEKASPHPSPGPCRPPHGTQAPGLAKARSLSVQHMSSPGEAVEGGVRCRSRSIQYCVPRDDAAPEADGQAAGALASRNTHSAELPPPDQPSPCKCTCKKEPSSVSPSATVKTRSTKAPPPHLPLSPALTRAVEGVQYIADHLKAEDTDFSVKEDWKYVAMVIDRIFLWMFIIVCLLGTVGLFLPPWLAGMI
Sequence of α4β2nAChR (P17787 26-502): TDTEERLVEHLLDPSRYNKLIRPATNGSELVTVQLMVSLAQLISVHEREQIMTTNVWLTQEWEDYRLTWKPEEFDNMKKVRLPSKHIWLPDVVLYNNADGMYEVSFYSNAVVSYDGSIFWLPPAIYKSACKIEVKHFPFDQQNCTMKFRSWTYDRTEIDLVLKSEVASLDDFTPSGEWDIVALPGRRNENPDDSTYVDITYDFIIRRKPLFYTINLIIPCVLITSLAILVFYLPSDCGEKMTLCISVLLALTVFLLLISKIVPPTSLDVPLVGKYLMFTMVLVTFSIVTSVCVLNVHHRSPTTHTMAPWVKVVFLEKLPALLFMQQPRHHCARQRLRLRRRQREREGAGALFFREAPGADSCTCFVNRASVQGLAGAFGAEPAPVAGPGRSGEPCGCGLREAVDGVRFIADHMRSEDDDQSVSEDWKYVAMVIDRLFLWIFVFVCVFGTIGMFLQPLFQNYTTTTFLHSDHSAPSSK

[7] = target: α7nAChR (Homo sapiens, UniProt P36544); conditions: peak concentrations in smokers / levels with therapeutic dosing in humans (Campling 2013); cited from earlier work
Sequence of α7nAChR (P36544 23-502): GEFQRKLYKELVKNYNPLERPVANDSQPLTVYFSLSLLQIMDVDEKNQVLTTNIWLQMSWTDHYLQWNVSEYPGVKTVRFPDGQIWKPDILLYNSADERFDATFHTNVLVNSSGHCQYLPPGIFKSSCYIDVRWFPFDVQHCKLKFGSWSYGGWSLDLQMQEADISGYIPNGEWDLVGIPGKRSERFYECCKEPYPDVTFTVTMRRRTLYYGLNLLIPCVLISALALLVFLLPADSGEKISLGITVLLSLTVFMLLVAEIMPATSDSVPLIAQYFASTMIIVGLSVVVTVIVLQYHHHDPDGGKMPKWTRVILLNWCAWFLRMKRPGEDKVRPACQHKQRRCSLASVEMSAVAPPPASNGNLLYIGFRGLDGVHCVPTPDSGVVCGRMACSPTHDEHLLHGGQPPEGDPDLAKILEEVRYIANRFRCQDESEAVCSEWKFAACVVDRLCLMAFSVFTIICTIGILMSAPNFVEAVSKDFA

SMILES: c1cnc2cc3c(cc2n1)C1CNCC3C1 [varenicline, 7,8,9, 10-tetrahydro-6, 10-methano-6H-pyrazino[2,3-h][3]benzazepine]
- acute immune cell (leukocyte) infiltrate in testis [1]: decreased leukocyte infiltrate; also recorded: reduction in the acute immune cell infiltrate
- testicular atrophy (weight of torsed testis vs contralateral control testis) [2]: limited long term testicular atrophy; also recorded: preserved testicular weight
- relative expression of collagen 1 (Col1) [3]: reduced the expression; also recorded: significantly decreased
- relative expression of collagen 3 (Col3) [3]: reduced the expression; also recorded: significantly decreased
- relative expression of smooth muscle actin (Sma) [3]: reduced the expression; also recorded: significantly decreased
- relative expression of vimentin (Vim) [3]: reduced the expression; also recorded: significantly decreased
- relative expression of collagen 1 (Col1) ([3]; listed as Varenicline): significantly decreased
- relative expression of collagen 3 (Col3) ([3]; listed as Varenicline): significantly decreased
- relative expression of smooth muscle actin (Sma) ([3]; listed as Varenicline): significantly decreased
- relative expression of vimentin (Vim) ([3]; listed as Varenicline): significantly decreased
- expression of pro-fibrotic genes / genetic markers of testicular fibrosis ([3]; long term (30 day) outcome, genes not itemised): decreased histologic and genetic markers of testicular fibrosis
- infiltration of leukocytes (flow cytometry) ([4]; 24 hours after warm ischemia of the hindlimb, P≤0.01): decreased infiltration of leukocytes
- expression of pro-fibrotic genes (quantitative PCR) ([4]; 7 days after reperfusion of the limb): decreased expression of pro-fibrotic genes
- collagen deposition in muscle fibers (trichrome staining) ([4]; 14 days following limb ischemia, P≤0.005): significant decrease in collagen deposition
- collagen deposition in the kidneys (percentage of green pigment per area of entire kidney) ([5]; 21 days following completion of antibiotic therapy, varenicline plus ceftriaxone vs ceftriaxone alone, p=0.001): significantly lower amount of collagen deposition; also recorded: long-term decrease in collagen deposition
- incidence of renal scar formation and renal atrophy ([5]; 30 days following acute pyelonephritis, preliminary results): decreased
- α4β2nAChR agonism [6]: strong α4β2nAChR and α7nAChR agonist
- activation of α7nAChR at clinically reached concentrations [7]: α7nAChR agonist at concentrations found with therapeutic dosing in humans; also recorded: strong α4β2nAChR and α7nAChR agonist
